Test results from patent publication US8846710B2, “Method of preferentially inducing the biosynthesis of interferon” (3M Innovative Properties Company, priority 2005, dated 2014).

Tests used:
[1] = system: tumor necrosis factor (α) (TNF-α); assay: Cytokine induction in human cells: TNF-α secreted by PBMC into culture media (ORIGEN M-Series immunoassay); assay type: cell-based; parameters: key to Maximal Response (pg/mL) TNF / Maximal Response TNF: If any negative values result from background subtraction, the reading is reported as “*”, and is noted as not reliably detectable; conditions: for Minimum Effective Concentration TNF / Maximal Response TNF / minimal effective concentration: human PBMC; for Minimum Effective Concentration TNF: median where tested in more than one experiment; for Maximal Response TNF / Maximal Response (pg/mL) TNF: median; for Maximal Response TNF: * = TNF below experimental background of 40 pg/mL; for Maximal Response (pg/mL) TNF / minimal effective concentration: Table 10; for Maximal Response (pg/mL) TNF: maximal response in dose response curve, * = below experimental background level; for minimal effective concentration: lowest tested concentration inducing TNF-α over usually 40 pg/mL, median where more than one experiment, read-out: Minimum Effective Concentration (μM) TNF
Outline: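 Human donor PBMC (final 2×10^6 cells/mL) were incubated 18 to 24 hours at 37° C with compound, usually 30-0.014 μM in 3-fold steps, ≤1% DMSO. Supernatant TNF-α was measured by ORIGEN immunoassay, background-subtracted and reference-adjusted; minimum effective concentration was the lowest concentration exceeding a fixed cytokine threshold.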

[2] = system: interferon (α) (IFN-α); assay: Cytokine induction in human cells: IFN-α secreted by PBMC into culture media (ELISA); assay type: cell-based; parameters: key to Maximal Response (pg/mL) IFN: If any negative values result from background subtraction, the reading is reported as “*”, and is noted as not reliably detectable; conditions: for Maximal Response IFN / Minimum Effective Concentration IFN / minimal effective concentration: human PBMC; for Maximal Response IFN / Minimum Effective Concentration IFN: median where tested in more than one experiment; for Maximal Response (pg/mL) IFN: maximal response in dose response curve, median; for minimal effective concentration: lowest tested concentration inducing IFN-α over usually 20 pg/mL, median where more than one experiment, read-out: Minimum Effective Concentration (μM) IFN
Outline: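 Human donor PBMC, 2×10^6 cells/mL final in RPMI complete, treated 18–24 h at 37 °C, 5% CO2 with 3-fold dilutions (usually 30-0.014 μM), DMSO ≤1%. Supernatant IFN-α by multi-subtype sandwich ELISA, background-subtracted and reference-adjusted; minimum effective concentration = lowest concentration exceeding usually 20 pg/mL.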

[3] = Table 10, * = below experimental background level

Structure (SMILES) | Minimum Effective Concentration TNF ([1]; Table 11) | Maximal Response TNF ([1]; Table 11) | Maximal Response IFN ([2]; Table 11) | Minimum Effective Concentration IFN ([2]; Table 11) | also measured
COCCc1nc2c(N)nc3ccccc3c2n1CCNS(C)(=O)=O [Analog 72] | 0.04 µM | 8547 pg/mL | 5858 pg/mL | 0.014 µM | 
CCOCc1nc2c(N)nc3cc(-c4cccnc4)ccc3c2n1CC(C)(C)O [Analog 10, 1-(4-amino-2-ethoxymethyl-7-pyridin-3-yl-1H-imidazo[4,5-c]quinolin-1-yl)-2-methylpropan-2-ol] |  |  |  |  | Maximal Response (pg/mL) TNF [1]: 7867 pg/mL; Maximal Response (pg/mL) IFN ([2]; Table 9, background-subtracted, reference-adjusted): 840 pg/mL; Maximal Response (pg/mL) IFN [2, 3]: 840 pg/mL
CCOCc1nc2c(N)nc3ccccc3c2n1CCNS(C)(=O)=O [Analog 71] | 3.33 µM | 4918 pg/mL | 1465 pg/mL | 0.12 µM | 
CCCC(=O)NCCCCn1c(CO)nc2c(N)nc3cc(-c4cccnc4)ccc3c21 [Example 196] |  |  |  |  | minimal effective concentration [1]: > 30 µM; minimal effective concentration ([2]; Table 10): 0.12 µM
Nc1nc2cc(-c3ccccc3)ccc2c2c1nc(CCO)n2CCCN1CCCC1=O [Example 156] |  |  |  |  | minimal effective concentration [1]: >30 µM; Maximal Response (pg/mL) TNF [1]: *; minimal effective concentration ([2]; Table 10): >30 µM; Maximal Response (pg/mL) IFN [2, 3]: *
CS(=O)(=O)NCCCCn1c(CO)nc2c(N)nc3ccccc3c21 [Example 368, N-[4-(4-amino-2-hydroxymethyl-1H-imidazo[4,5-c]quinolin-1-yl)butyl]methanesulfonamide] |  | * | 7220 pg/mL |  | 
COCCc1nc2c(N)nc3cc(-c4ccncc4)ccc3c2n1CCCN1CCCC1=O [Analog 40] |  |  |  |  | minimal effective concentration [1]: 3.33 µM; Maximal Response (pg/mL) TNF [1]: 943 pg/mL; minimal effective concentration ([2]; Table 10): 0.37 µM; Maximal Response (pg/mL) IFN [2, 3]: 1179 pg/mL
CC(C)CC(=O)NCCn1c(CCO)nc2c(N)nc3ccccc3c21 [Example 138] | >30 µM | * | 36 pg/mL | 3.33 µM | 
CCCNC(=O)NCCCCn1c(COCC)nc2c(N)nc3cc(-c4cccnc4)ccc3c21 [Analog 29] |  |  |  |  | minimal effective concentration [1]: 1.11 µM; Maximal Response (pg/mL) TNF [1]: 1059 pg/mL; minimal effective concentration ([2]; Table 10): 0.04 µM; Maximal Response (pg/mL) IFN [2, 3]: 936 pg/mL
CCc1nc2c(N)nc3ccccc3c2n1CCCNS(C)(=O)=O [Analog 59] | 30 µM | 238 pg/mL | 1912 pg/mL | 1.11 µM | 
CCNC(=O)NCCn1c(CCOC)nc2c(N)nc3ccccc3c21 [Analog 104] | 0.12 µM | 7719 pg/mL | 2587 pg/mL | 0.014 µM | 
Cc1nc2c(N)nc3ccccc3c2n1CCCNS(C)(=O)=O [Aanalog 58] | 30 µM | * | 2778 pg/mL | 1.11 µM | 
COCCc1nc2c(N)nc3ccccc3c2n1CCOCCN(C)C(=O)c1ccccc1 [Analog 120] | 0.37 µM | 3317 pg/mL | 1394 pg/mL | 0.04 µM | 
CCOCc1nc2c(N)nc3ccccc3c2n1CC(C)(C)NC(=O)C1CCCCC1 [Analog 93] | 0.37 µM | 12173 pg/mL | 1052 pg/mL | 0.37 µM | 
CCOCc1nc2c(N)nc3cccnc3c2n1CC(C)(C)NS(C)(=O)=O [Analog 130, N-[2-(4-amino-2-ethoxoxymethyl-1H-imidazo[4,5-c][1,5]naphthyridin-1-yl)-1,1-dimethylethyl]methanesulfonamide] |  |  |  |  | Minimum Effective Concentration TNF ([1]; Table 12): 0.37 µM; Minimum Effective Concentration IFN ([2]; Table 12): 0.04 µM
CCOCc1nc2c(N)nc3cc(-c4cccnc4)ccc3c2n1CCCCNC(=O)C1CCCC1 [Analog 35] |  |  |  |  | minimal effective concentration [1]: 0.37 µM; Maximal Response (pg/mL) TNF [1]: 1366 pg/mL; minimal effective concentration ([2]; Table 10): 0.04 µM; Maximal Response (pg/mL) IFN [2, 3]: 969 pg/mL
Nc1nc2ccccc2c2c1nc(CCO)n2CCCCNS(=O)(=O)c1ccc(F)cc1 [Example 112] | 30 µM | 76 pg/mL | 8361 pg/mL | 1.11 µM | 
CCc1nc2c(N)nc3ccccc3c2n1CCOCCN(C)S(C)(=O)=O [Analog 78] | 1.11 µM | 2525 pg/mL | 1803 pg/mL | 0.12 µM | 
COCCc1nc2c(N)nc3ccccc3c2n1CCCN [Analog 86] | 1.11 µM | 1674 pg/mL | 3433 pg/mL | 0.04 µM | 
CCCc1nc2c(N)nc3ccccc3c2n1CCOCCN(C)S(C)(=O)=O [Analog 79] | 3.33 µM | 1312 pg/mL | 1055 pg/mL | 0.37 µM | 
CCc1nc2c(N)nc3ccccc3c2n1CCCCCS(C)(=O)=O [Analog 74] | 1.11 µM | 1545 pg/mL | 1062 pg/mL | 0.12 µM | 
CC(C)Cn1c(CCO)nc2c(N)nc3cc(-c4cccnc4)ccc3c21 [Example 158] |  |  |  |  | Maximal Response (pg/mL) TNF [1]: 42 pg/mL; minimal effective concentration ([2]; Table 10): 0.37 µM
CS(=O)(=O)NCCCn1c(CCO)nc2c(N)nc3ccccc3c21 [Example 122] | >30 µM | * | 9651 pg/mL | 3.33 µM | 
CCOCc1nc2c(N)nc3cc(-c4ccccc4)ccc3c2n1CCCN1CCCC1=O [Analog 22] |  |  |  |  | minimal effective concentration [1]: 1.11 µM; Maximal Response (pg/mL) TNF [1]: 62 pg/mL; minimal effective concentration ([2]; Table 10): 0.37 µM; Maximal Response (pg/mL) IFN [2, 3]: 1665 pg/mL
